This is an account of results in ChEMBL document CHEMBL1146869 (Bioorg Med Chem Lett, 2006).

Converted amounts (≈) assume the structure as drawn.

A short description of data set [1]: Aqueous solubility of the compound. The class given is physicochemical. The settings on record: water.
The test system of data set [2] is Rattus norvegicus. Put plainly: Gastric toxicity in rat at 20 mg/kg, iv. The class given is organism-based. More on the design: dose 20 mg/kg, route intravenous. The conditions noted are these: in vivo.
Data set [3] has as its system Rattus norvegicus. Put plainly: Anti-inflammatory activity against carrageenan-induced paw edema in Sprague-Dawley rat at 3 mg/kg, iv after 5 hrs. The class given is functional, organism-based. The arrangement: dose 3 mg/kg, route intravenous.
Data set [4] has as its system Rattus norvegicus. Put plainly: Anti-inflammatory activity against carrageenan-induced paw edema in Sprague-Dawley rat at 3 mg/kg, iv after 3 hrs. The class given is functional, organism-based. More on the design: dose 3 mg/kg, route intravenous. (In the carrageenan paw model, swelling and tenderness develop within hours.)
For data set [5], the target named is T1, Prostaglandin G/H synthase 1 (Ovis aries, UniProt P05979).
T1 sequence (P05979 whole entry): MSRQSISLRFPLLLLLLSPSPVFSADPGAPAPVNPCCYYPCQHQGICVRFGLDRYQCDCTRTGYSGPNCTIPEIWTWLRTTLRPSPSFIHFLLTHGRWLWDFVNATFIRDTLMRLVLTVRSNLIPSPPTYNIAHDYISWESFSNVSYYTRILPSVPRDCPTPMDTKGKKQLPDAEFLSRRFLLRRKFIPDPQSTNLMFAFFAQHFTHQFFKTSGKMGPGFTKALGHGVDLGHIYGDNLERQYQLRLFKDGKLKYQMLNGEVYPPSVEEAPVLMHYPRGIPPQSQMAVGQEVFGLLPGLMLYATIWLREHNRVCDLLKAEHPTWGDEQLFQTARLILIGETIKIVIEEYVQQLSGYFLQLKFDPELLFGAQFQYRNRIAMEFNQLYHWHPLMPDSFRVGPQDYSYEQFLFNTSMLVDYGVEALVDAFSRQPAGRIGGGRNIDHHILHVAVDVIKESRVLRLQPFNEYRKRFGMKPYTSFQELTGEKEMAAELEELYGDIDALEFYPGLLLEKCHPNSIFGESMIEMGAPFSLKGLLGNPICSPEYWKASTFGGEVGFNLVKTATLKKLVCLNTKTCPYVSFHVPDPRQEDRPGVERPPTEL
Put plainly: Inhibition of COX1. More on the design: species or system Homo sapiens.

The target in data set [6] is T2, Prostaglandin G/H synthase 2 (Homo sapiens, UniProt P35354).
T2 sequence (P35354 whole entry): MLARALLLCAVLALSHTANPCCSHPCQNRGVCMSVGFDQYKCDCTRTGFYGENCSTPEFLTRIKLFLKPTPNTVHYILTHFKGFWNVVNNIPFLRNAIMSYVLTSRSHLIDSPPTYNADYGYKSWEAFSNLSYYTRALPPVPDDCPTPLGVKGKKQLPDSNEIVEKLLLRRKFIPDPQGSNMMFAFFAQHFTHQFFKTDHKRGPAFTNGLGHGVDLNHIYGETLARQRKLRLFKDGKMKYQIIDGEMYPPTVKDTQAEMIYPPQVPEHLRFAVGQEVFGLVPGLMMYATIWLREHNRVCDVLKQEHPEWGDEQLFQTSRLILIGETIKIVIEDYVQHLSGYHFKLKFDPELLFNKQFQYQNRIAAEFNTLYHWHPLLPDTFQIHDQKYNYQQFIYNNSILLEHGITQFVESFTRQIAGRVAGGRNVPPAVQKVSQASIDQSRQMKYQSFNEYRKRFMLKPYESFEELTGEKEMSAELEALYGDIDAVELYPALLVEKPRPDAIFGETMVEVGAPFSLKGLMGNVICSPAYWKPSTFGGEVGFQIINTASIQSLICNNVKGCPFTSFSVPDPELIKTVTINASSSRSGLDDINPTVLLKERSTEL

Data set [7] has as its system Rattus norvegicus. Put plainly: Gastric toxicity in rat at 40 mg/kg, iv. The class given is organism-based. More on the design: dose 40 mg/kg, route intravenous. The settings on record: in vivo.

`Cc1ccc(-c2cc(C(F)(F)F)nn2-c2ccc(-c3nnn[nH]3)cc2)cc1`: the concentration in solution in data set [1] (solubility) came to 100 mg/mL (≈ 270 mM). The Activity entry with Rattus norvegicus [2] was “Not Active”. Further, the inhibition in vivo at 3 mg/kg in the data set on Rattus norvegicus [3] was 34.7%; with Rattus norvegicus [4], 40.2%. The IC50 in data set [5] stood at 4.1 nM; in data set [6], 1.9 nM.

With `O=C([O-])Cc1ccccc1Nc1c(Cl)cccc1Cl.[Na+]` [DICLOFENAC SODIUM], the values for the Activity in the data set on Rattus norvegicus [7] and in the data set with Rattus norvegicus [2] were 51.5 and 22.8, respectively.

With `CCC(=O)[N-]S(=O)(=O)c1ccc(-c2c(-c3ccccc3)noc2C)cc1.[Na+]` [PARECOXIB SODIUM], the Activity entry in the data set on Rattus norvegicus [7] is on record as “Not Active”. Further, the inhibition in vivo at 3 mg/kg in the data set with Rattus norvegicus [3] was 42%; with Rattus norvegicus [4], 62.8%.

Regarding `O=C1OCC(c2ccc(-c3nn[nH]n3)cc2)=C1c1ccccc1`, in data set [1], the solubility stood at 125 mg/mL (≈ 411 mM). The Activity result in the data set on Rattus norvegicus [2] is “Not Active”. Also, the values for the inhibition in vivo at 3 mg/kg with Rattus norvegicus [3] and in the data set on Rattus norvegicus [4] were 28% and 34.1%, respectively. Further, the IC50 in data set [5] was 3.8 nM; in data set [6], 1.8 nM.

In general, solubility refers to the concentration that dissolves in the medium under given conditions. The low end stands for little dissolved substance, the high end for much dissolved substance. One may read the inhibition in vivo as how much of the control response was suppressed. A high value points to strong suppression. A word on the IC50: it is the point on the concentration scale where inhibition reaches its midpoint. The low end stands for greater potency, the high end for weaker potency.
